In the NIST ThermoML archive (doi:10.1016/j.jct.2013.10.031):

Assay: wn = mass fraction of the nth substance listed
Details: Gas, Burnett expansion method

FCC(F)(F)F [1,1,1,2-tetrafluoroethane] + CCC
Details	mass density [kg/m3]
251.84 K, 167.7 kPa, w2 = 0.4	9.96073
251.85 K, 201.9 kPa, w2 = 0.4	13.2676
251.86 K, 140.8 kPa, w2 = 0.4	7.47724
251.88 K, 122.9 kPa, w2 = 0.4	5.6131
251.89 K, 177.7 kPa, w2 = 0.45	5.82156
251.9 K, 103.2 kPa, w2 = 0.45	3.28086
251.9 K, 135.5 kPa, w2 = 0.45	4.37034
251.9 K, 231.8 kPa, w2 = 0.45	7.75442
252.28 K, 125.8 kPa, w2 = 0.5	3.8957
252.28 K, 164.9 kPa, w2 = 0.5	5.1893
252.29 K, 95.7 kPa, w2 = 0.5	2.9246
252.29 K, 215.3 kPa, w2 = 0.5	6.9121
252.3 K, 277.7 kPa, w2 = 0.5	9.2069
254.94 K, 147.3 kPa, w2 = 0.65	4.0008
254.94 K, 193.1 kPa, w2 = 0.65	5.32
254.94 K, 251.7 kPa, w2 = 0.65	7.0741
254.95 K, 111.9 kPa, w2 = 0.65	3.0009
255.01 K, 161.7 kPa, w2 = 0.55	4.7449
255.01 K, 211.6 kPa, w2 = 0.55	6.3095
255.01 K, 275.1 kPa, w2 = 0.55	8.3897
255.02 K, 122.9 kPa, w2 = 0.55	3.5683
255.02 K, 242.1 kPa, w2 = 0.6	7.0088
255.03 K, 107.3 kPa, w2 = 0.6	2.9809
255.03 K, 141.3 kPa, w2 = 0.6	3.9638
255.03 K, 185.5 kPa, w2 = 0.6	5.2708
255.79 K, 278.4 kPa, w2 = 0.45	9.23624
255.8 K, 213.6 kPa, w2 = 0.45	6.93377
255.81 K, 124.4 kPa, w2 = 0.45	3.90764
255.81 K, 163.3 kPa, w2 = 0.45	5.20515
255.82 K, 214.2 kPa, w2 = 0.4	7.34761
255.82 K, 276.5 kPa, w2 = 0.4	9.7875
255.83 K, 125 kPa, w2 = 0.4	4.14099
255.83 K, 163.9 kPa, w2 = 0.4	5.51597
256.28 K, 141.3 kPa, w2 = 0.5	4.27286
256.28 K, 185.6 kPa, w2 = 0.5	5.69162
256.28 K, 242.9 kPa, w2 = 0.5	7.58146
256.28 K, 314.6 kPa, w2 = 0.5	10.099
256.29 K, 107.2 kPa, w2 = 0.5	3.20772
258.98 K, 181.5 kPa, w2 = 0.65	4.8943
258.99 K, 138.2 kPa, w2 = 0.65	3.6806
258.99 K, 237.5 kPa, w2 = 0.65	6.508
259 K, 308.1 kPa, w2 = 0.65	8.6533
259.04 K, 159.4 kPa, w2 = 0.6	4.3995
259.04 K, 209.2 kPa, w2 = 0.6	5.8501
259.04 K, 273.1 kPa, w2 = 0.6	7.7791
259.05 K, 121 kPa, w2 = 0.6	3.3086
259.15 K, 246.1 kPa, w2 = 0.55	7.2337
259.15 K, 319.6 kPa, w2 = 0.55	9.6189
259.16 K, 143 kPa, w2 = 0.55	4.0909
259.16 K, 188 kPa, w2 = 0.55	5.4398
260.14 K, 233.5 kPa, w2 = 0.45	7.48249
260.15 K, 178.4 kPa, w2 = 0.45	5.61717
260.16 K, 136 kPa, w2 = 0.45	4.21669
260.16 K, 216.7 kPa, w2 = 0.5	6.56707
260.16 K, 304 kPa, w2 = 0.45	9.96648
260.17 K, 104.4 kPa, w2 = 0.45	3.16556
260.18 K, 117.7 kPa, w2 = 0.4	3.78056
260.19 K, 155.8 kPa, w2 = 0.4	5.03578
260.19 K, 265.9 kPa, w2 = 0.4	8.93493
260.2 K, 125.4 kPa, w2 = 0.5	3.70054
260.2 K, 165.1 kPa, w2 = 0.5	4.92963
260.21 K, 95 kPa, w2 = 0.5	2.77802
260.25 K, 204 kPa, w2 = 0.4	6.70606
260.39 K, 282.8 kPa, w2 = 0.5	8.73987
263.01 K, 137.7 kPa, w2 = 0.65	3.5955
263.01 K, 237 kPa, w2 = 0.65	6.3575
263.01 K, 308.7 kPa, w2 = 0.65	8.4537
263.02 K, 181 kPa, w2 = 0.65	4.781
263.04 K, 222.9 kPa, w2 = 0.55	6.3877
263.05 K, 128.9 kPa, w2 = 0.55	3.6124
263.05 K, 219.6 kPa, w2 = 0.6	6.0704
263.05 K, 286.9 kPa, w2 = 0.6	8.072
263.05 K, 291.1 kPa, w2 = 0.55	8.4935
263.06 K, 167.2 kPa, w2 = 0.6	4.5651
263.06 K, 169.8 kPa, w2 = 0.55	4.8035
263.06 K, 376.6 kPa, w2 = 0.55	11.2936
263.07 K, 371.3 kPa, w2 = 0.6	10.733
264.02 K, 234.6 kPa, w2 = 0.45	7.35423
264.02 K, 305.6 kPa, w2 = 0.45	9.80334
264.03 K, 136.3 kPa, w2 = 0.45	4.14766
264.03 K, 179.2 kPa, w2 = 0.45	5.52482
264.03 K, 395.1 kPa, w2 = 0.45	13.0578
264.05 K, 220.5 kPa, w2 = 0.4	7.15058
264.05 K, 288.1 kPa, w2 = 0.4	9.52478
264.06 K, 127.7 kPa, w2 = 0.4	4.02995
264.06 K, 168.1 kPa, w2 = 0.4	5.36802
264.06 K, 373.8 kPa, w2 = 0.4	12.6873
264.29 K, 216 kPa, w2 = 0.5	6.42237
264.29 K, 282.6 kPa, w2 = 0.5	8.55501
264.29 K, 367.3 kPa, w2 = 0.5	11.3955
264.3 K, 124.9 kPa, w2 = 0.5	3.61957
264.3 K, 164.5 kPa, w2 = 0.5	4.82138
266.99 K, 289.8 kPa, w2 = 0.65	7.7396
267.01 K, 221.7 kPa, w2 = 0.65	5.82
267.01 K, 375.8 kPa, w2 = 0.65	10.2907
267.02 K, 128.5 kPa, w2 = 0.65	3.2915
267.02 K, 169 kPa, w2 = 0.65	4.3767
267.04 K, 261.1 kPa, w2 = 0.55	7.4247
267.04 K, 340.3 kPa, w2 = 0.55	9.8728
267.05 K, 199.2 kPa, w2 = 0.55	5.5837
267.05 K, 438.6 kPa, w2 = 0.55	13.1279
267.07 K, 138.6 kPa, w2 = 0.6	3.6841
267.07 K, 151.4 kPa, w2 = 0.55	4.1987
267.07 K, 182.7 kPa, w2 = 0.6	4.8989
267.07 K, 239.8 kPa, w2 = 0.6	6.5142
267.07 K, 313.2 kPa, w2 = 0.6	8.6621
267.08 K, 405.7 kPa, w2 = 0.6	11.5178
267.95 K, 114.5 kPa, w2 = 0.4	3.5398
267.95 K, 150.8 kPa, w2 = 0.4	4.71519
267.95 K, 198.3 kPa, w2 = 0.4	6.28082
267.96 K, 259.7 kPa, w2 = 0.4	8.36602
268 K, 338.5 kPa, w2 = 0.4	11.1424
268.07 K, 437.9 kPa, w2 = 0.4	14.8381
268.15 K, 234.6 kPa, w2 = 0.45	7.16341
268.15 K, 306.8 kPa, w2 = 0.45	9.54198
268.15 K, 398.6 kPa, w2 = 0.45	12.7103
268.16 K, 135.7 kPa, w2 = 0.45	4.03719
268.16 K, 178.7 kPa, w2 = 0.45	5.37765
268.22 K, 133.2 kPa, w2 = 0.5	3.80047
268.23 K, 175.4 kPa, w2 = 0.5	5.06234
268.24 K, 230.4 kPa, w2 = 0.5	6.74301
268.24 K, 301.4 kPa, w2 = 0.5	8.98179
268.25 K, 391.6 kPa, w2 = 0.5	11.9637
270.98 K, 225.5 kPa, w2 = 0.55	6.2618
270.99 K, 171.5 kPa, w2 = 0.55	4.709
270.99 K, 295.2 kPa, w2 = 0.55	8.3263
270.99 K, 384.1 kPa, w2 = 0.55	11.0715
271.01 K, 493 kPa, w2 = 0.55	14.7211
271.03 K, 140.5 kPa, w2 = 0.65	3.5483
271.03 K, 242.2 kPa, w2 = 0.65	6.274
271.03 K, 316.1 kPa, w2 = 0.65	8.3428
271.04 K, 184.7 kPa, w2 = 0.65	4.7181
271.04 K, 466.5 kPa, w2 = 0.6	13.2292
271.05 K, 409.9 kPa, w2 = 0.65	11.0926
271.08 K, 361.5 kPa, w2 = 0.6	9.9474
271.1 K, 160.8 kPa, w2 = 0.6	4.2305
271.1 K, 211.6 kPa, w2 = 0.6	5.6254
271.1 K, 277.5 kPa, w2 = 0.6	7.4803
271.58 K, 526.1 kPa, w2 = 0.5	16.4345
271.6 K, 411.1 kPa, w2 = 0.5	12.337
271.62 K, 241.2 kPa, w2 = 0.5	6.95248
271.62 K, 316.5 kPa, w2 = 0.5	9.26115
271.64 K, 182.9 kPa, w2 = 0.5	5.21904
271.65 K, 138.7 kPa, w2 = 0.5	3.918
272.12 K, 507.5 kPa, w2 = 0.45	16.4006
272.13 K, 175.9 kPa, w2 = 0.45	5.20923
272.13 K, 231.2 kPa, w2 = 0.45	6.93891
272.13 K, 289.6 kPa, w2 = 0.4	9.21252
272.13 K, 302.5 kPa, w2 = 0.45	9.24297
272.13 K, 393.6 kPa, w2 = 0.45	12.3121
272.14 K, 127.8 kPa, w2 = 0.4	3.89783
272.14 K, 168.4 kPa, w2 = 0.4	5.19207
272.14 K, 221.2 kPa, w2 = 0.4	6.91602
